Data: patent publication US20200345645A1, “COMPOSITIONS COMPRISING INDIGO AND/OR AN INDIGO DERIVATIVE AND METHODS OF USE THEREOF” (Azora Therapeutics, Inc., priority 2019, published 2020)
Like-named read-outs stand apart in the source and are kept apart here.

How the values were obtained:
[1] = target: T1, aryl hydrocarbon receptor (Homo sapiens, UniProt P35869); conditions: background statement, "It is known", cited from earlier work
T1 sequence (P35869 11-848): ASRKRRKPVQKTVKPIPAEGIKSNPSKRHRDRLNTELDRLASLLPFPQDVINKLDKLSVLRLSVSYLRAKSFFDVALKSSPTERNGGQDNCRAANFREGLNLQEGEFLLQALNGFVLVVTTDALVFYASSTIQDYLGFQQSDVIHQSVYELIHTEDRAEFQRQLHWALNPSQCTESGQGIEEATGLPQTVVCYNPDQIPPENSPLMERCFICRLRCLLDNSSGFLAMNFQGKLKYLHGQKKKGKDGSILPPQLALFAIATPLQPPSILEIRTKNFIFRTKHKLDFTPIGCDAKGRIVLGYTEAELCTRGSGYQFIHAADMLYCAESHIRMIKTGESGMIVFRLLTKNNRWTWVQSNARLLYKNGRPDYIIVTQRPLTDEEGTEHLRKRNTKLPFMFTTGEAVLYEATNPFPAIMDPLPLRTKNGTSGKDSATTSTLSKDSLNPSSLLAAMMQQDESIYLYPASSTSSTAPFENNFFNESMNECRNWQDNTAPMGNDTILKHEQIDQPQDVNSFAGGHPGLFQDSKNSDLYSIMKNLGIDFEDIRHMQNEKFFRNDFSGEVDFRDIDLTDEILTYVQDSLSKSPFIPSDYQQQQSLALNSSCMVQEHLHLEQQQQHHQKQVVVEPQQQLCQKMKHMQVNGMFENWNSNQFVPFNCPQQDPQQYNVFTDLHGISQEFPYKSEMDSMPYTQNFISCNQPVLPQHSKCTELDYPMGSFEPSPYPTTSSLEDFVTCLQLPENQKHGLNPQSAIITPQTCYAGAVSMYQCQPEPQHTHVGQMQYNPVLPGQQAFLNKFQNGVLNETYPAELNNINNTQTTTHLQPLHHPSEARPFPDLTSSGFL

[2] = Release of indirubin into fasted-state simulated intestinal fluid (FaSSIF), HPLC; format: physicochemical; conditions: for Amount of indirubin in % Q (measured amount in solution divided by theoretical maximum) / Amount of indirubin in solution: FaSSIF pH 6.5, 37° C., 2 mg total indirubin in 500 mL; for Amount of indirubin in solution: mean of six replicates
Experimental: Additional solid amorphous dispersions of synthetic indirubin in six different hydrophilic carrier polymers-povidone, PVAc-PVCap-PEG, (SOLUPLUS®), copovidone, HPMC-AS, HPMCP and polyvinyl acetate phthalate (PVAP)—were prepared for a further study, as described in Example 15. In this study, dispersions with indirubin to polymer ratios of 1:9 or 0.5:9.5 were prepared, and the release of indirubin into fasted-state simulated intestinal fluid was determined. For comparison, Indigo naturalis and crystalline synthetic indirubin were also tested. The amount of indirubin in fasted-state simulated intestinal fluid was determined by HPLC for samples of the fluid taken. The mean amount of indirubin in solution at each time point was determined, and is shown in Table 1 in units of μg/L and in Table 2 as a percentage, referred to a % Q, of measured amount (mass) of indirubin in solution divided by the theoretical maximum amount (mass) of indirubin in solution.
Solid amorphous dispersions of synthetic indirubin in six different hydrophilic carrier polymers-povidone, PVAc-PVCap-PEG, (SOLUPLUS®), copovidone, HPMC-AS, HPMCP and polyvinyl acetate phthalate (PVAP) with indirubin to polymer ratios of 1:9 or 0.5 to 9.5 were prepared as described in Example 13. For comparison, Indigo naturalis and crystalline synthetic indirubin were also tested. All test articles were normalized to a total indirubin of 2 mg and added to 500 mL of fasted-state simulated intestinal fluid (FaSSIF) medium consisting of 3 mM taurocholate, 0.75 mM phospholipids, 148 mM sodium, 106 mM chloride, and 29 mM phosphate at pH 6.5. Six replicates of each test article were assessed under the following testing conditions: mixing with USP #2 paddles at 100 RPM at 37° C. with sampling of 5 mL at each time point and filtration through a 10 μm filter. […] The mean amount of indirubin in solution at each time point was determined, and is shown in Table 1 in units of μg/L and in Table 2 as a percentage, referred to a % Q, of measured amount (mass) of indirubin in solution divided by the theoretical maximum amount (mass) of indirubin in solution.

human AhR = human AhR (Homo sapiens, UniProt P35869); conditions: 24 hours incubation, reporter cells from human Huh7 cells expressing human AhR and ARNT
Sequence of human AhR (P27540 whole entry partner, one chain of several): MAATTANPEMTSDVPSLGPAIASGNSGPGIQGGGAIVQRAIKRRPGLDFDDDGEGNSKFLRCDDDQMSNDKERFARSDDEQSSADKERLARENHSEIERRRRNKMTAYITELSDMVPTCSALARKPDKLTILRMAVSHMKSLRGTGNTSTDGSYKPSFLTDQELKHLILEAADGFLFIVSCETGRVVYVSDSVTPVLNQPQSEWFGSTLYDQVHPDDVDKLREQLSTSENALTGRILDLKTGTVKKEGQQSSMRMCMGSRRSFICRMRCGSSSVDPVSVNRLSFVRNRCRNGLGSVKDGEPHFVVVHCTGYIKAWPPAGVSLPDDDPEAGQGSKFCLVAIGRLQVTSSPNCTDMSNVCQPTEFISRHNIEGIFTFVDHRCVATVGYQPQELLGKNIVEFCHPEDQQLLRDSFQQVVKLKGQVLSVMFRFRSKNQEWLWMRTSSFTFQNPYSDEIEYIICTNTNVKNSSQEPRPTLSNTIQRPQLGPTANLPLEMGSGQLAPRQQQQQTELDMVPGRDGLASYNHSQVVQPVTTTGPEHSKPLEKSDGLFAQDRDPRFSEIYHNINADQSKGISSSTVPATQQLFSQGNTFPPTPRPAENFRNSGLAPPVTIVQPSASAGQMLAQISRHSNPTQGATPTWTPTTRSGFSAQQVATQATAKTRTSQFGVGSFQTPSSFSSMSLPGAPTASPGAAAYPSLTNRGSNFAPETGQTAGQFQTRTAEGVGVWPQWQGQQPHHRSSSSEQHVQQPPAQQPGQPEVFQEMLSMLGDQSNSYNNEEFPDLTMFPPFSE
Experimental: Each was incubated for 24 hours with reporter cells made from human Huh7 cells expressing human AhR and ARNT with luciferase expressed behind a genetic response element that responds to dimerized AhR/ARNT.
After incubation, the medium was aspirated and a detection reagent was added followed by a measurement of the relative luminescent units compared to a negative control of DMSO.

Compound	Agonism of the aryl hydrocarbon receptor [1]	Agonism of the aryl hydrocarbon receptor ([1]; listed as Indigo)	Amount of indirubin in % Q (measured amount in solution divided by theoretical maximum) ([2]; 5 min) [% Q]	Amount of indirubin in solution ([2]; 5 min) [µg/L]	Amount of indirubin in % Q (measured amount in solution divided by theoretical maximum) ([2]; 10 min) [% Q]	Amount of indirubin in solution ([2]; 10 min) [µg/L]	Amount of indirubin in % Q (measured amount in solution divided by theoretical maximum) ([2]; 20 min) [% Q]	Amount of indirubin in solution ([2]; 20 min) [µg/L]	Amount of indirubin in % Q (measured amount in solution divided by theoretical maximum) ([2]; 30 min) [% Q]	Amount of indirubin in solution ([2]; 30 min) [µg/L]	Amount of indirubin in % Q (measured amount in solution divided by theoretical maximum) ([2]; 60 min) [% Q]	Amount of indirubin in solution ([2]; 60 min) [µg/L]	Amount of indirubin in % Q (measured amount in solution divided by theoretical maximum) ([2]; 90 min) [% Q]	Amount of indirubin in solution ([2]; 90 min) [µg/L]	Amount of indirubin in % Q (measured amount in solution divided by theoretical maximum) ([2]; 120 min) [% Q]	Amount of indirubin in solution ([2]; 120 min) [µg/L]	Release of indirubin, of the total amount of indirubin ([2]; FaSSIF, summary of Tables 1 and 2)	Activation of the AhR receptor (fold activation relative to DMSO, FIG. 4) (human AhR)
O=C1/C(=C2\Nc3ccccc3C2=O)Nc2ccccc21 [indigo]	potent agonists	less potent than indirubin	–	–	–	–	–	–	–	–	–	–	–	–	–	–	–	–
O=C1Nc2ccccc2/C1=C1/Nc2ccccc2C1=O [Synthetic Indirubin, indirubin]	potent agonists	–	0.02	0.02	0.03	0.03	0.03	0.03	0.03	0.03	0.04	0.04	0.05	0.05	0.07	0.07	Less than 0.1%	potent activator
